Laboratory results from ChEMBL document CHEMBL2440085, “Identification of novel PARP-1 inhibitors by structure-based virtual screening” (Bioorg Med Chem Lett, 2013).
Calls of active or inactive are those of the source. The calls are words filed in the database; no cut-off is given here.

biological target: T1, Poly [ADP-ribose] polymerase 1 (Homo sapiens, UniProt P09874); experiment: Inhibition of PARP-1 (unknown origin) at 1 uM after 60 mins by colorimetric assay relative to control
T1 sequence (P09874 whole entry): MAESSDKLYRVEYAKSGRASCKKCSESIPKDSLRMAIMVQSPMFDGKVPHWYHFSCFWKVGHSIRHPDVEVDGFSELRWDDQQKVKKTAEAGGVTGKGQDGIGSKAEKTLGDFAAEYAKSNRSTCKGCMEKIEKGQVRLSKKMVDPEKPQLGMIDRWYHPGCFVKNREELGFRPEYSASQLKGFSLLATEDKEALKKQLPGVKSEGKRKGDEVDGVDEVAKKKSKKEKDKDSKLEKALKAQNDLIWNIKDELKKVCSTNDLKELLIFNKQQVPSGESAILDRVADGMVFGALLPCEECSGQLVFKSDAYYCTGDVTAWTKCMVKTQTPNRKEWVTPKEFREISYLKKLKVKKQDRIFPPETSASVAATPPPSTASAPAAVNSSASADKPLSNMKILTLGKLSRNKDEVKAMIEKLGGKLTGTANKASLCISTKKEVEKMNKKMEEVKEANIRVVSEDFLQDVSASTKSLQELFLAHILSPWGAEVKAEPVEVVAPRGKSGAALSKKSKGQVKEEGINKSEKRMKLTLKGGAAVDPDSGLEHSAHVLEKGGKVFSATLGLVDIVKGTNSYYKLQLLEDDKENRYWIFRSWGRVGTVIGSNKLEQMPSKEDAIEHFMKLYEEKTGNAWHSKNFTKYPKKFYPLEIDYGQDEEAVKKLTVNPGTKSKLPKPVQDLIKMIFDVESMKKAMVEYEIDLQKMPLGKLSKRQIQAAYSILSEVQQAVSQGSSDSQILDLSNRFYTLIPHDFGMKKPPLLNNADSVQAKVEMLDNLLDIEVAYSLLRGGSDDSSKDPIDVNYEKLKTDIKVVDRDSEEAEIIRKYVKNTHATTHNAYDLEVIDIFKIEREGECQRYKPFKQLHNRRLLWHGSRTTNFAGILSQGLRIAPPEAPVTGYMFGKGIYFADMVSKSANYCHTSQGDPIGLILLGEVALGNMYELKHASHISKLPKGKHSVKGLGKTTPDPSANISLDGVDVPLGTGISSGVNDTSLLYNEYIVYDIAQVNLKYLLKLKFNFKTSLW

Compound	inhibition
Oc1nc2ccccc2n2nnnc12	inactive
O=C(c1ccc(F)cc1)c1c2nc[nH]c(=O)c2c2ccccn12	inactive
O=C(c1ccccc1)c1c2nc[nH]c(=O)c2c2ccccn12	inactive
O=C(CSc1nc2sc3c(c2c(=O)[nH]1)CCC3)N(CCO)CCO	40%
CCCn1c2c(c(=S)[nH]c1=O)CCC2	inactive
CC1Oc2ccc(NC(=O)CNC(=O)c3ccccc3)cc2NC1=O (stereo not given)	inactive
O=c1[nH]n(-c2ccc([N+](=O)[O-])cc2)c(=O)c2ccccc12	inactive
CC1Oc2ccc(NC(=O)COc3ccc(F)cc3)cc2NC1=O (stereo not given)	inactive
Cc1nn2nnnc2[nH]c1=O	inactive
CCN(CC)c1ccc(/C=N\Nc2nnc(C)c(=O)[nH]2)cc1	inactive
Cc1cccc(N2CCN(c3nnc(C)c(=O)[nH]3)CC2)c1C	inactive
O=C(O)CN1C(=O)c2ccc3c4c(ccc(c24)C1=O)C(=O)N3	inactive
O=C(CS(=O)(=O)CC(=O)c1ccc2c(c1)NC(=O)CO2)Nc1ccccc1	inactive
O=C1N[C@@H]2N(Cc3ccccc3C23CCOCC3)c2ccccc21	40%
O=C1Nc2ccc(S(=O)(=O)NCc3ccccn3)c3cccc1c23	inactive
Cc1ccc2cc(CCN)c(=O)[nH]c2c1C	inactive
Cc1sc2nc(SCC(=O)N3CCN(CCO)CC3)[nH]c(=O)c2c1C	40%
Cc1cc(OCC(=O)Nc2ccc3c(c2)NC(=O)C(C)O3)ccc1Cl (stereo not given)	inactive
CC(C)(C)c1nn2c(SCC(=O)c3ccc(Cl)c(Cl)c3)nnc2[nH]c1=O	inactive
Cc1ccc(C(=O)C2=C3NC(=O)c4ccccc4N3Cc3ccccc32)cc1	inactive
O=C1NC(=O)c2cc(NS(=O)(=O)c3cccc4cccnc34)ccc21	inactive
N#Cc1c(-c2ccccc2)cn2c1[nH]c(=O)c1ccccc12	40%
Cc1ccc(C(=O)CSc2nc3c(c(=O)[nH]2)CCC3)cc1	inactive
O=C1N[C@H]2Cc3ccccc3CN2c2ccccc21	40%
O=C1Nc2ccc(S(=O)(=O)Nc3ccc(Cl)cn3)c3cccc1c23	inactive
O=c1[nH]c(NCc2ccncc2)nc2c1CCC2	inactive
O=C1Nc2ccc(S(=O)(=O)NCc3cccnc3)c3cccc1c23	inactive

biological target: T1, Poly [ADP-ribose] polymerase 1; experiment: Inhibition of PARP-1 (unknown origin) after 60 mins by colorimetric assay

Compound	IC50
O=C(CSc1nc2sc3c(c2c(=O)[nH]1)CCC3)N(CCO)CCO	2140 nM
O=C1N[C@@H]2N(Cc3ccccc3C23CCOCC3)c2ccccc21	1960 nM
Cc1sc2nc(SCC(=O)N3CCN(CCO)CC3)[nH]c(=O)c2c1C	720 nM
O=c1[nH]cnc2ccsc12	14000 nM
N#Cc1c(-c2ccccc2)cn2c1[nH]c(=O)c1ccccc12	9570 nM
O=C1N[C@H]2Cc3ccccc3CN2c2ccccc21	1920 nM

biological target: T1, Poly [ADP-ribose] polymerase 1; experiment: Inhibition of PARP-1 (unknown origin) at 10 uM after 60 mins by colorimetric assay relative to control

Compound	inhibition
O=c1[nH]cnc2sccc12	< 20%
Oc1ncnc2ccsc12	46%
